Experimental data from ChEMBL document CHEMBL6103630, “Discovery of Novel 2,4,5-Trisubstituted Pyrimidine Derivatives as Potent and Selective FGFR Inhibitors against Gatekeeper Mutants for the Treatment of NSCLC” (J Med Chem, 2025).
Calls of active or inactive are those of the source. No cut-off for these calls is given here.

Legend:
[1] = Toxicity in BALB/c nude mouse xenografted with rat L6 cells harboring FGFR V561M mutant assessed as change in lung weight at 30 to 60 mg/kg and measured daily for 14 days; assay type: organism-based; details: in vivo, 336 h, dose 30-60 mg/kg, time 14 day
[2] = tested on: NCI-H1581; test: Inhibition of cell migration in human NCI-H1581 cells at 40 nM incubated upto 72 hrs by wound healing assay (reference value: 80%); assay type: functional
[3] = Toxicity in ICR mouse assessed as change in body weight at 80 mg/kg, po measured after 7 days; assay type: organism-based; details: in vivo, 168 h, time 7 day
[4] = tested on: Mus musculus; test: In vivo inhibition of FGFR1 signaling pathway in BALB/c nude mouse xenografted with human NCI-H1581 cells assessed as reduction in FGFR1 phosphorylation level in tumor by Western blotting analysis; assay type: functional, organism-based
[5] = Antitumor activity against rat L6 cells harboring FGFR V561M mutant xenografted in BALB/c nude mouse assessed as tumor growth inhibition at 30 mg/kg relative to control; assay type: functional; details: read-out: TGI
[6] = AUC(0 to infinity) in male Sprague-Dawley rat at 2 mg/kg, iv by UHPLC-MS/MS analysis; assay type: ADME, organism-based; details: in vivo
[7] = target: Vascular endothelial growth factor receptor 2 (Homo sapiens) (UniProt P35968); test: Inhibition of VEGFR2 (unknown origin)
[8] = tested on: Mus musculus; test: In vivo inhibition of AKT phosphorylation in BALB/c nude mouse xenografted with rat L6 cells harboring FGFR1 V561M mutant assessed as suppression of AKT level in tumor at 60 mg/kg by Western blotting analysis; assay type: functional, organism-based
[9] = Cmax in male Sprague-Dawley rat at 2 mg/kg, iv by UHPLC-MS/MS analysis; assay type: ADME, organism-based; details: in vivo
[10] = target: T1, Fibroblast growth factor receptor 2 (Homo sapiens, UniProt P21802); test: Inhibition of wild type FGFR2 (unknown origin) by caliper mobility shift assay
[11] = target: Fibroblast growth factor receptor 3 (Homo sapiens, UniProt P22607); test: Inhibition of wild type FGFR3 (unknown origin) by caliper mobility shift assay
[12] = AUC(0 to t) in male Sprague-Dawley rat at 2 mg/kg, iv by UHPLC-MS/MS analysis; assay type: ADME, organism-based; details: in vivo
[13] = Hepatotoxicity in ICR mouse assessed as change in AST level at 80 mg/kg, po; assay type: toxicity, organism-based; details: in vivo
[14] = Toxicity in ICR mouse assessed as histopathological changes in liver at 80 mg/kg, po by H and E staining based analysis; assay type: organism-based; details: in vivo
[15] = target: Platelet-derived growth factor receptor alpha (Homo sapiens) (UniProt P16234); test: Inhibition of PDGFRalpha (unknown origin)
[16] = tested on: L6; test: Antitumor activity against rat L6 cells harboring FGFR1 V561M mutant xenografted in BALB/c nude mouse assessed as induction of apoptosis in tumor at 30 to 60 mg/kg by H and E staining based analysis; assay type: functional, organism-based; details: dose 30-60 mg/kg
[17] = Toxicity in BALB/c nude mouse xenografted with human NCI-H1581 cells assessed as change in ALT level at 60 mg/kg; assay type: organism-based; details: in vivo
[18] = Toxicity in ICR mouse assessed as drug tolerance at 80 mg/kg, po measured after 7 days; assay type: organism-based; details: in vivo, 168 h, time 7 day
[19] = target: Fibroblast growth factor receptor 4 (Homo sapiens, UniProt P22455); test: Inhibition of wild type FGFR4 (unknown origin) by caliper mobility shift assay
[20] = Toxicity in BALB/c nude mouse xenografted with rat L6 cells harboring FGFR V561M mutant assessed as change in heart weight at 30 to 60 mg/kg and measured daily for 14 days; assay type: organism-based; details: in vivo, 336 h, dose 30-60 mg/kg, time 14 day
[21] = Toxicity in BALB/c nude mouse xenografted with rat L6 cells harboring FGFR V561M mutant assessed as change in kidney weight at 30 to 60 mg/kg and measured daily for 14 days; assay type: organism-based; details: in vivo, 336 h, dose 30-60 mg/kg, time 14 day
[22] = Antitumor activity against rat L6 cells harboring FGFR V561M mutant xenografted in BALB/c nude mouse assessed as tumor growth inhibition at 60 mg/kg relative to control; assay type: functional; details: read-out: TGI
[23] = Tmax in male Sprague-Dawley rat at 10 mg/kg, po by UHPLC-MS/MS analysis; assay type: ADME, organism-based; details: in vivo
[24] = Toxicity in BALB/c nude mouse xenografted with rat L6 cells harboring FGFR V561M mutant assessed as change in spleen weight at 30 to 60 mg/kg and measured daily for 14 days; assay type: organism-based; details: in vivo, 336 h, dose 30-60 mg/kg, time 14 day
[25] = AUC(0 to t) in male Sprague-Dawley rat at 10 mg/kg, po by UHPLC-MS/MS analysis; assay type: ADME, organism-based; details: in vivo
[26] = tested on: NCI-H1581; test: Inhibition of colony formation in human NCI-H1581 cells incubated for 48 hrs by crystal violet staining based assay; assay type: functional, cell-based; details: dose 10-40 nM
[27] = tested on: NCI-H1581; test: Inhibition of AKT (unknown origin) phosphorylation in human NCI-H1581 cells at 10 to 40 nM by Western blotting analysis; assay type: cell-based; details: dose 10-40 nM
[28] = tested on: NCI-H1581; test: Inhibition of cell migration in human NCI-H1581 cells at 10 to 40 nM incubated for 48 hrs by crystal violet staining based transwell assay; assay type: functional; details: dose 10-40 nM
[29] = Toxicity in ICR mouse assessed as change in kidney weight at 80 mg/kg, po measured after 7 days; assay type: organism-based; details: in vivo, 168 h, time 7 day
[30] = target: T1, Fibroblast growth factor receptor 2; test: Binding affinity to FGFR2 (unknown origin) at 0.1 uM
Target sequence in this assay (P21802 22-821 limits assumed): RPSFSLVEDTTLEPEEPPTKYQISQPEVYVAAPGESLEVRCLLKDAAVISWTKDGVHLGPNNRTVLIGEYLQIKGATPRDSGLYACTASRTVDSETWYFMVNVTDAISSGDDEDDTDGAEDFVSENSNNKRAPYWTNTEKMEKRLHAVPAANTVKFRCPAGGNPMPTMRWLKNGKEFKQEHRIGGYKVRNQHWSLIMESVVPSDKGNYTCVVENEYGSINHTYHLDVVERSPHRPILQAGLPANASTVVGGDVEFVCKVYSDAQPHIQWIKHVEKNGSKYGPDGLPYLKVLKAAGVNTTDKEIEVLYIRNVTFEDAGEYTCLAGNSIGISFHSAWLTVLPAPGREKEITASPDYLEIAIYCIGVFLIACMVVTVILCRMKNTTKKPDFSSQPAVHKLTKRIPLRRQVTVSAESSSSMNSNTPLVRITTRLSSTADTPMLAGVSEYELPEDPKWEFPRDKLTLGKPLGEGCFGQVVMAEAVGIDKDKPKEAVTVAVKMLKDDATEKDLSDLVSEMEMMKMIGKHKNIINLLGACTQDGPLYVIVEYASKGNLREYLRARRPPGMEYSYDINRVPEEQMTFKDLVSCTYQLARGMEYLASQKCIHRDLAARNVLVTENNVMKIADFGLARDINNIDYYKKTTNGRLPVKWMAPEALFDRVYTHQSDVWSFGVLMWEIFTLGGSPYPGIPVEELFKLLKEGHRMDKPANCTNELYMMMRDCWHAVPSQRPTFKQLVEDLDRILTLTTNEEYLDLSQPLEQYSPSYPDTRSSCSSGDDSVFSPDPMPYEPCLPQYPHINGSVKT

[31] = Toxicity in BALB/c nude mouse xenografted with rat L6 cells harboring FGFR V561M mutant assessed as change in liver weight at 30 to 60 mg/kg and measured daily for 14 days; assay type: organism-based; details: in vivo, 336 h, dose 30-60 mg/kg, time 14 day
[32] = target: Fibroblast growth factor receptor 2 (Homo sapiens, UniProt P21802, V564F)
[33] = tested on: L6; test: Antitumor activity against rat L6 cells harboring FGFR1 V561M mutant xenografted in BALB/c nude mouse assessed as suppression of tumor cell proliferation at 30 to 60 mg/kg by Ki-67 staining based analysis; assay type: functional, organism-based; details: dose 30-60 mg/kg
[34] = Tmax in male Sprague-Dawley rat at 2 mg/kg, iv by UHPLC-MS/MS analysis; assay type: ADME, organism-based; details: in vivo

Fibroblast growth factor receptor 4, sequence (P22455 whole entry): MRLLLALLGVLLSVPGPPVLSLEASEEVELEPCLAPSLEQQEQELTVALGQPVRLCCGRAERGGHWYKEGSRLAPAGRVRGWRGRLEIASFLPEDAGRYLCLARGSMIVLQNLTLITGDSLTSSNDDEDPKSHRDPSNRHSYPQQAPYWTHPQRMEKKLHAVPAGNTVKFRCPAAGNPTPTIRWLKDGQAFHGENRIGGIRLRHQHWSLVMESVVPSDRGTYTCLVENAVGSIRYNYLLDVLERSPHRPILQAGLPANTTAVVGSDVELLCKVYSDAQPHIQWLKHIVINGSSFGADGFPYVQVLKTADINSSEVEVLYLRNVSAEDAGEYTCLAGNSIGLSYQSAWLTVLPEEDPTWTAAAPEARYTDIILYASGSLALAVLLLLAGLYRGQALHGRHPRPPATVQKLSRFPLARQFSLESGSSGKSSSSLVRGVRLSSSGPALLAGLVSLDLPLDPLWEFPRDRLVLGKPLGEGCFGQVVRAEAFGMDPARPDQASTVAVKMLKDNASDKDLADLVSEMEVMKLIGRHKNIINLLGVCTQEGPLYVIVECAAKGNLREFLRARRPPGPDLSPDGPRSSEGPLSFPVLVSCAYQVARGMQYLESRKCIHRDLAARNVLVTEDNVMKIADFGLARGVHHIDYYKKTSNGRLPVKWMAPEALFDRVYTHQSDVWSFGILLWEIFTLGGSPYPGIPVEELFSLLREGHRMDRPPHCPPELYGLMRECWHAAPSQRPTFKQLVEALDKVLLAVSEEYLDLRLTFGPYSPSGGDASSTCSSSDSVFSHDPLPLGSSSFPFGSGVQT
Fibroblast growth factor receptor 2 (Homo sapiens, UniProt P21802, V564F), sequence (P21802 22-821 V564F limits assumed): as the sequence (P21802 22-821 limits assumed) above, with V543F counted along it
Platelet-derived growth factor receptor alpha (Homo sapiens), sequence (P16234 whole entry): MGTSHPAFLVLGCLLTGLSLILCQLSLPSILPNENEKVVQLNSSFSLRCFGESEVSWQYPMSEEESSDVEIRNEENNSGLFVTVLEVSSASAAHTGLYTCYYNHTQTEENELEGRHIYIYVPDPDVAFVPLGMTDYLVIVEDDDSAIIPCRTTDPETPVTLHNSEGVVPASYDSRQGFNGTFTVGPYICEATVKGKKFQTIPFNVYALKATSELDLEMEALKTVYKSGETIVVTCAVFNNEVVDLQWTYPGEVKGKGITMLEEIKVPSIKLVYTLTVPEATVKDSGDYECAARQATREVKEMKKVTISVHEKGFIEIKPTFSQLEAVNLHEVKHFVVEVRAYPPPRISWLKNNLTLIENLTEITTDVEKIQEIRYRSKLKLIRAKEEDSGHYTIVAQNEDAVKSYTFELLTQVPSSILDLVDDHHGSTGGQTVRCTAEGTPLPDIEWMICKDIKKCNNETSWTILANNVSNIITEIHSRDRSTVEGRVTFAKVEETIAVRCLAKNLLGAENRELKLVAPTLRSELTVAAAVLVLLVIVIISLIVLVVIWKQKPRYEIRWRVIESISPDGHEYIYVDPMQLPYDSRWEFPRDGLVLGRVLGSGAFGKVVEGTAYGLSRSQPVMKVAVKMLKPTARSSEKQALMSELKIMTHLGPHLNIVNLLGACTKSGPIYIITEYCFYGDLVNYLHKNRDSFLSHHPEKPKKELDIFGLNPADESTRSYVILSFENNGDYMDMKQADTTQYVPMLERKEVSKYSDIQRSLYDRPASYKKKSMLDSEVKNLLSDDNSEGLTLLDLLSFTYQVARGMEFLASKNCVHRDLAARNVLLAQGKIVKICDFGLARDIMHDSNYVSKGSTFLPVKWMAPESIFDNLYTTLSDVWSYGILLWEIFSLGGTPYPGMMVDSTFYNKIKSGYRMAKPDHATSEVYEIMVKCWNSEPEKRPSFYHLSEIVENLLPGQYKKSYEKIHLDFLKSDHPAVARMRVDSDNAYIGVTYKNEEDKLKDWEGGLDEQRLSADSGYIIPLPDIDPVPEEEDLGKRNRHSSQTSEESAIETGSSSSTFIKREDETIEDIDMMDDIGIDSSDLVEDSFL
Fibroblast growth factor receptor 3, sequence (P22607 whole entry): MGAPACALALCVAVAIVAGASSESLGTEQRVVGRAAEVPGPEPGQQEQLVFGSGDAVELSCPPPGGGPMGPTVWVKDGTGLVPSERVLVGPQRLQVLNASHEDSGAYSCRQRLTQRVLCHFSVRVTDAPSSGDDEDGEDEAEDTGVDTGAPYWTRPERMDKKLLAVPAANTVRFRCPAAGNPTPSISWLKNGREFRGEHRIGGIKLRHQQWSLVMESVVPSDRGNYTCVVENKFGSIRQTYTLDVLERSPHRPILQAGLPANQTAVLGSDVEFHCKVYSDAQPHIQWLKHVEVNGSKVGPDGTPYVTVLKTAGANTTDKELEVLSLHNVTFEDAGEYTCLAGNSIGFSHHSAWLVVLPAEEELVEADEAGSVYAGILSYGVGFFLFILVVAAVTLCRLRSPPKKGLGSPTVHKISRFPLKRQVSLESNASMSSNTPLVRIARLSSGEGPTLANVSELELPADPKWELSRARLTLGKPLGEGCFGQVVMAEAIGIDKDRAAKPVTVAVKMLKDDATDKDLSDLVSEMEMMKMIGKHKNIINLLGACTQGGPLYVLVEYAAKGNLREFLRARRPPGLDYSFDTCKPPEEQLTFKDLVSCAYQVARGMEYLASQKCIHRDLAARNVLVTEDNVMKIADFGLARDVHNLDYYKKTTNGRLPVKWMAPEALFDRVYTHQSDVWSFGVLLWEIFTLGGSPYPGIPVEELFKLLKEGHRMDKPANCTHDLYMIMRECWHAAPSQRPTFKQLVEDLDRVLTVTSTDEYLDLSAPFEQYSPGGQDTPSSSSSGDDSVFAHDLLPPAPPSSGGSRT
Vascular endothelial growth factor receptor 2 (Homo sapiens), sequence (P35968 whole entry): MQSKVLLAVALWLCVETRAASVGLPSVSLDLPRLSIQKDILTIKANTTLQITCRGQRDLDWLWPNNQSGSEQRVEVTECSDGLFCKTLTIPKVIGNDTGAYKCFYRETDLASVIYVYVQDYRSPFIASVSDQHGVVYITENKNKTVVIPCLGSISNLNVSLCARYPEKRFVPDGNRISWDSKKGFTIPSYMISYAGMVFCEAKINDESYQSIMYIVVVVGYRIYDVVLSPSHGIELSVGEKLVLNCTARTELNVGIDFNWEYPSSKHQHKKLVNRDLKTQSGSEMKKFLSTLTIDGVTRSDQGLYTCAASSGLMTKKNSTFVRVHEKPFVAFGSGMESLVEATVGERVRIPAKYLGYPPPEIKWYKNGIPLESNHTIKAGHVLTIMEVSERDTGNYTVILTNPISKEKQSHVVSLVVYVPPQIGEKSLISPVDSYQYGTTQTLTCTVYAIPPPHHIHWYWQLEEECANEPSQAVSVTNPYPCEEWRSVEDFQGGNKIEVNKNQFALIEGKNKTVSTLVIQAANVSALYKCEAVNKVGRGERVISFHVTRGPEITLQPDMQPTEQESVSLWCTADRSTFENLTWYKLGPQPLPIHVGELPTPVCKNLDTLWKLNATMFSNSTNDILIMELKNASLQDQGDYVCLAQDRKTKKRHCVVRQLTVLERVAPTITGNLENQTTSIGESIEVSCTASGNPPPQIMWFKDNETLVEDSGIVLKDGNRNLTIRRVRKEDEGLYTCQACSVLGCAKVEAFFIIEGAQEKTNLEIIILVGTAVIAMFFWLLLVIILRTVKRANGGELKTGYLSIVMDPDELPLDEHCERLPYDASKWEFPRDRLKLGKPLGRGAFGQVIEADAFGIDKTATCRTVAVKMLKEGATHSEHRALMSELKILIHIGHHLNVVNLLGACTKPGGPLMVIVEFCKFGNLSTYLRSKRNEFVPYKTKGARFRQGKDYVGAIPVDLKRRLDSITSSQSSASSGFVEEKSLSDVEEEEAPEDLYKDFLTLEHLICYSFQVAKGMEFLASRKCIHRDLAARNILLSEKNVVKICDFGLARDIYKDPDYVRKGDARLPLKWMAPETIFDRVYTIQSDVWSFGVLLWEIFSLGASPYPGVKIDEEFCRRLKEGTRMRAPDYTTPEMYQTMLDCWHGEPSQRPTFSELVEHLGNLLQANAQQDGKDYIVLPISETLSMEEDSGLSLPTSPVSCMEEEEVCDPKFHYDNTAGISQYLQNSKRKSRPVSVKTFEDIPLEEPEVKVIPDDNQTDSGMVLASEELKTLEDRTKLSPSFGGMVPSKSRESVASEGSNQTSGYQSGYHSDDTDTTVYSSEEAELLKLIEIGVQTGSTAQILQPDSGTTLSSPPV

## C=CC(=O)Nc1ccc(Nc2nc(Nc3ccc(N4C[C@@H](C)N[C@@H](C)C4)c(OC)c3)ncc2Cl)cc1Cl
[1]
  Activity: Non-toxic
[2]
  inhibition at 0.04 µM: 40%
[3]
  Activity: Non-toxic
[4]
  inhibition: Active
[5]
  inhibition in vivo at 30 mg/kg: 48%
[6]
  AUC(0-inf): 5400 ng·h/mL
[7]
  inhibition: Not active; Moderate To Weak Inhibitory Activity Observed
[8]
  inhibition: Active
[9]
  Cmax: 816 ng/mL
[10]
  IC50: 15.6 nM
[11]
  IC50: 19.4 nM
[12]
  AUC(0-t): 1940 ng·h/mL
[13]
  Activity: Non-toxic
[14]
  Activity: Non-toxic
[15]
  inhibition: Not active; Moderate To Weak Inhibitory Activity Observed
[16]
  Activity: Active
[17]
  Activity: Non-toxic
[18]
  Activity: Non-toxic
[19]
  IC50: 486 nM
[20]
  Activity: Non-toxic
[21]
  Activity: Non-toxic
[22]
  inhibition in vivo at 60 mg/kg: 69%
[23]
  Tmax: 30 min
[24]
  Activity: Non-toxic
[25]
  AUC(0-t): 7800 ng·h/mL
[26]
  inhibition: Dose-dependent-effect
[27]
  inhibition: Active
[28]
  inhibition: Active
[29]
  Activity: Non-toxic
[30]
  Activity: Not active; Reduced Affinities Observed
[31]
  Activity: Non-toxic
[32]
  IC50: 1.5 nM
[33]
  Activity: Active
[34]
  Tmax: 4.8 min
